Test results taken from patent publication US7258861B2, “TNF-derived peptides for use in treating oedema” (Innogenetics N.V., priority 2001, dated 2007).
Values joined by “and” are separate entries in the source; they are usually repeats but may differ in a detail not shown here. Equal entries are not always repeated. Positions of bridges follow the written chain, without caps; N, C: chain ends. No end group written: not given here.

Legend:
[1] = system: ex vivo instilled rat lung; assay: Ex vivo rat flooded lung, model of hydrostatic edema
Protocol: In this model edema is induced by instillating 2 ml of 0.9% NaCl solution intratracheally. Alternatively, edema formation can be modulated by varying the height of the venous outflow and the perfusion buffer containing reservoir, or alternatively by varying the time the lung is exposed to the elevated pressure. […] The clearance of alveolar fluid from the lung is calculated by means of measuring the concentration of HSA, which is added to the instillate over time. Alternatively, the over time weight loss as a measure of edema resorption (high weight loss is high liquid clearance), of the artificially instilled lung can be measured. The lung tidal volume, compliance and weight are monitored continuously during the experiment. At the end of the experiment bronchoalveolar fluid and supernatant of lung homogenate is taken for measurement of inflammatory mediators.
The lungs of female Wistar rats (weight 200–250 g; Harlan-Winkelmann, Borchen, Germany) are prepared after terminal i.p. anesthesia by 160 mg/kg pentobarbitural —Na (Merial Ltd, Halbermoos, Germany) and perfused as described by Uhlig and Wolin (1994), and by Uhlig and von Bethmann (1997). All equipment is obtained from Hugo Sachs Electronics (March-Hugstetten, Germany). […] As perfusion medium, a Krebs-Henseleit buffer (38° C.) containing 2% bovine serum albumin (Fraction V, Scrva. Heidelberg, Germany), 0.1% glucose (Riedel-de-Haën Inc., Seelze, Germany), and 0.3% HEPES (ICN Biomedicals Inc., Ohio, USA) is used. The total amount of recirculating buffer is 100 ml. The lungs are suspended by the trachea and ventilated by negative pressure ventilation (inspiratory pressure: −7 cm H2O, expiratory pressure: −2 cm H2O) with 80 breaths per minute resulting in a tidal volume of approximately 2 ml. Every 5 minutes, a deep inspiratory breath (−20 cm H2O) is performed. Artificial thorax chamber pressure is measured with a differential pressure transducer (Validyne DP 45-14), and an air flow velocity with a pneumotachograh tube (Fleisch Type 0000) connected to a differential pressure transducer (Validyne DP 45-15). The perfusate flow (Narcomatic RT-500) and the arterial and venous pressure (Statham P23BB) are continuously monitored. The pH of the perfusate before entering the lung is kept at 7.25 to 7.35 by automatic bubbling of the buffer with CO2 as soon as the pH exceeds this range. A weight transducer is integrated into the chamber lid which allows the continuous assessment of lung weight. Data are recorded on a Pentium II computer using the Mathlab Sofware package (Mathworks, Inc., Nattick Mass., USA). For lung mechanics, the data are analyzed by applying the following formula: P=1/C*VT+RLdV/dT
Where P is chamber pressure, C pulmonary compliance, VT tidal volume, and RL airway resistance. All lung physiology parameters were normalized to time point 0, i.e. after the end of the preconditioning perfusion of 40 minutes.

[2] = system: transplanted left lung of rats; assay: Single left lung transplantation in syngeneic rats; type: in vivo, rat; conditions: 24 hours after transplantation; donor lung pre-treated by intratracheal application, 500 μg/kg
Protocol: Female Wistar of Fischer rats or weighting 250 to 260 g undergo orthotopic single left lung transplantation after 20 hours cold ischemia using a cuff technique for the vessel anastomoses and a conventional running suture for the bronchial anastomosis.
Donor procedure: Animals are anesthetized by intraperitoneal administration of pentobarbital (50 mg/kg) and heparinized (500 I.U./kg). A tracheotomy is performed and the animals are ventilated trough a cannula with 100% O2 by a Harvard rodent ventilator (Harvard apparatus, South Natick, Mass.) at a tidal volume of 10 ml/kg. […] Both lungs are flushed with 20 cc of low-potassium dextran-solution (LPD) (Perfadex®, Kabi Pharmacia, Sweden) at a pressure of 20 cm H2O. The trachea is then tied in end-inspiration. After removal of the heart-lung block, 14 gauge cuffs are placed around the pulmonary artery and vein, and the vessels are inverted and tied onto the cuff. The lung is stored in LPD solution at 4° C. until implantation.
Recipient procedure: Transplantation was performed after 20 hours of cold ischemia (4° C.). The recipient is anesthetized by breathing Halothane in a glass chamber, intubated, and anesthesia is maintained with Halothane 2%. A left lateral thoracotomy is performed in the 4th intercostal space. The left hilium is dissected. […]

[3] = system: left lung of Fischer (F344) rats; assay: Rat model of lung reperfusion injury (warm ischemia and reperfusion); type: in vivo
Protocol: In a modification of the model of Ohno et al. (1993) male Fischer (F344) rats (200–250 g) undergo clamping of the left pulmonary artery, pulmonary vein and main bronchus for 36 minutes of warm ischemia. After reperfusion of the left lung, the right lung is occluded to assess the function of the left lung for 90 minutes. The peptide is given at 3 minutes after reperfusion by either instillation or intravenous injection via the subclavian vein.
• 1. Anaesthesia of the rat in a glass chamber, 4% Halothane and Oxygen 4/min. • 2. Intubation of the rat with a 1.8 mm catheter, • 3. Shaving the fur on the abdomen and left side of the animal. • 4. Ventilation via the tracheal tube 100/min, 2.5 ml 20% oxygen, Harvard Rodent Ventilator (Harvard Apparatus, South Natick, Mass.), PEEP 5 mm H2O. • 5. A left thoracotomy is carried out in the in 4th intercostal space. • 6. Dissection of the left lung hilar region. • 7. Microvascular clips are placed around the left pulmonary artery (PA), Pulmonary vein (PV) and left main bronchus (B) to induce warm ischemia of the left lung. Small circulation is still ongoing through the right lung. This is the start of the Warm Ischemia Time (WIT). • 8. Anaesthaesia is maintained with 2% Halothane, 40% Oxygen. • 9. A provisory Z suture is made to temporary close the thoracotomy and a gaze sponge is put on the animal to decrease warmth loss. • 10. Near the end of the WIT, a thoracophrenolaparatomy in the midline with thorough electrocaterisation. (two peans on the sternum). • 11. Putting 2-0 Softsilk on the trachea around the intubation tube. • 12. Dissection of the right hilar elements. • 13. Taking away microvascular clips from the left hilar elements. End of WIT of the left lung after 36 minutes. • 14. Putting microvascular clips on right PA and B. Small circulation only through left lung. Start developing of left oedema time (LLOT). • 15. After 3 minutes of LLOT: instillation of the drug in 0.5 ml of 0.9% saline solution (Baxter) or injection of the drug in 0.25–0.3 ml of 0.9% saline through the subclavian vein. • 16. After 6, 30, 60 and 90 minutes of LLOT, puncture of the Aortic Arch (AA) with needle for blood gas analysis in Radiometer ABL 700 Serie, (Denmark). • 17. After each puncture the AA puncture hole is pressed with a cotton swab. • 18. Blood gas analysis is taken every time from AA (the heart rate should be over 60). • 19. After the last blood gas analysis (90 minutes), both lungs are flushed via the PA with 20 ml of 0.9% saline at a pressure of 20 cm H2O. […] The heart-lung block is excised for storage under formaline or in the freezer awaiting immunohistopathological analysis. Alternatively, the lung can be excised without flushing to assess wet to dry ratio's. Results (FIG. 7)

isolated rat lungs [4] = assay: Isolated blood perfused flooded rat lung (weight, lung mechanics, PV curves, histology)
Protocol: (§1) Rats. For the ex vivo experiments, 31 Sprague-Dawley rats (300 to 350 g) were tracheotomized and mechanically ventilated (40% oxygen in air) under isoflurane anesthesia. The experimental protocol was reviewed and approved by the Ethics Committee for Animal Research and by the Veterinary Office of our institution. The femoral vessels were cannulated for blood sampling, fluid replacement, and continuous arterial blood pressure monitoring. Following anticoagulation (1.5 IU/g i.v. heparin), 20 ml of blood were withdrawn and replaced by an equal volume of dextran-40 (Macrodex 10% in normosaline) to serve as priming volume for the isolated perfusion circuit. The heart-lung block was prepared as described by Ma et al., 2000, weighed and assigned to one of four groups. […] The lungs were suspended, mechanically ventilated, and perfused at constant pressure with autologous blood as described by Ma et al., 2000.
(§2) An inspiratory and expiratory quasi-static pressure-volume (PV) curve was performed at the end of the 2-hour reperfusion period by inflating and then deflating the lungs at a constant rate (0.3 ml/sec) using an automated infusion pump. A sigh was applied in all groups every 15 minutes to minimize atelectasis formation. The blood pH was maintained between 7.3 and 7.5 and, if necessary, corrected with sodium bicarbonate 8.4% or a change of the inspired CO2 as required by the blood gas analysis. Every 30 minutes, a blood sample was collected for blood gas analysis as well as for hematocrit and electrolyte concentration.
(§3) Inclusion criteria. Immediately following the start of reperfusion, the preparation had to fulfill three technical inclusion criteria: • 1) left atrial pressure (LAP) 5-10 mmHg; • 2) peak airway pressure (AWP) <15 cmH2O; and • 3) pulmonary blood flow (PBF) >10 ml/min. […] The included lungs were then flooded with gentle intratracheal instillation of 2 ml normal saline and the recorded variables measured for 2 subsequent hours.
(§4) Histological analysis. Random lung samples were fixed for light and electron microscopy and analyzed by pathologists blinded to the lung's protocol group assignment.

isolated rat lungs [5] = system: isolated rat lungs
Protocol: as §1, §2, §3, §4

Sequence	clearing alveolar fluid content ex vivo ([1]; after intratracheal instillation, summary in words)	activity in fluid clearance ([1]; measured 80 minutes after instillation, summary in words)	Weight loss of ex vivo instilled rat lung over 80 min ([1]; synthetic peptide 1000 μg/lung)	Weight loss of ex vivo instilled rat lung over 100 min ([1]; synthetic peptide 1000 μg/lung)	pO2 [2]	pCO2 levels ([3]; 500 μg/kg to 5 μg/kg, data not shown)	pO2 blood gas levels ([3]; 6 to 90 minutes of LLOT, cyclic hum Ltip 500 μg/kg to 5 μg/kg, hum mut Tip 500 μg/kg)	gain in pO2 blood gas ([3]; iv application)	lung weight change over time after alveolar flooding (isolated rat lungs [4]; 2 hours reperfusion after 2 ml saline, TNF 5 μg, peptides 1 mg)	lung mechanics (peak AWP, Cdyn, Raw) after alveolar flooding (isolated rat lungs [4]; 2 hours reperfusion, TNF 5 μg, peptides 1 mg)	fraction of intratracheal instilled saline lost (isolated rat lungs [4]; at 2 hours, 1 mg)	inflation volume at lower inflection point (isolated rat lungs [4]; end of 2-hour reperfusion, 1 mg)	lower inflection point of inspiratory quasi-static PV curve (isolated rat lungs [4]; end of 2-hour reperfusion, TNF 5 μg, peptide 1 mg)	leukocyte infiltration (lung histology) (isolated rat lungs [5])
CGQRETPEGAEAKPWYC [cyclic hum Ltip]	capable of clearing alveolar fluid content	equally active	658 mg and 585 mg and 663 mg and 648 mg and 575 mg and 931 mg and 900 mg and 918 mg	1009 mg and 744 mg and 685 mg and 663 mg and 758 mg and 694 mg and 1004 mg and 1000 mg	395+/−95 mmHg	lower pCO2 levels	significantly much better pO2 levels	significantly increased gain in pO2 blood gas						
CGPKDTPEGAELKPWYC (disulfide 1-17; listed as Mus musculus) [cyclic mu Ltip]									progressively decreased in weight	progressive improvement in lung mechanics	approximately half	3.4 ± 0.9 mL	17.2±1.6 cmH2O	did not show this increased leukocyte infiltration
